Values of other authors, collected in US7087617B2, “Substituted pyrimidine derivatives” (Pfizer Inc., priority 2003, dated 2006).

Conditions: for effect on the "anxiogenic" effects / actions of CRF in the conflict test: rats, CRF-induced effects

## CNC(=O)c1cc2c(cn1)[nH]c1ccccc12 [FG 7142]
  effect on the "anxiogenic" effects / actions of CRF in the conflict test: enhanced the actions of CRF

## CCOC(=O)c1ncn2c1CN(C)C(=O)c1cc(F)ccc1-2 [Ro 15-1788]
Compound alone, without CRF
  behavioral activity alone in the operant conflict test: without behavioral activity alone
  effect on the "anxiogenic" effects / actions of CRF in the conflict test: reversed the effects of CRF in a dose-dependent manner
